Like-named read-outs stand apart in the source and are kept apart here.

What all share (assay): Cell proliferation IC50 (Cell Titer Glo)
Type in all cases: cell-based

One assay has as its system A375. Conditions: Homo sapiens, A-375, 96 h, read-out: IC50 cell proliferation. As to the method:
(§1) IC50 Cell proliferation measurements. Cell proliferation was assessed in the 41 tumor cell lines set forth in Table 2 after 4 days of continuous exposure to either the ERK1/2 inhibitor, compound a or the MEK inhibitor compound b (PD0325901) using Promega Cell Titer Glo reagent (Promega Corp, Madison, Wis.). Promega's CellTiter-Glo™ Luminescent Cell Viability Assay is a sensitive method for assaying cell proliferation using a stable form of luciferase to measure ATP as an indicator of viable cells. This reagent allows a homogeneous method of determining cell number by quantitation of ATP. The luciferase luminescent signal produced is proportional to the number of viable cells present in culture.
(§2) A 1000× compound dose response curve, containing 8 dilutions of each compound, was prepared on a 96-well plate. Compounds were diluted in 100% DMSO to the following (1000×) concentrations: compound b: 1000 μM, 333 μM, 111 μM, 37 μM, 12 μM, 4.1 μM, 1.4 μM and 0.5 μM; compound a: 3000 μM, 1000 μM, 333 μM, 111 μM, 37 μM, 12 μM, 4.1 μM and 1.4 μM. This compound source plate was sealed and kept frozen between uses.
(§3) Cells were grown in RPMI 1640 medium supplemented with 10% Fetal Bovine Serum, 2 mM Glutamine and non-essential amino acids or DMEM/F12 Media containing the same supplements. On day zero, cells were trypsinized, counted and plated into wells of a 96-well Wallac TC Isoplate (Perkin-Elmer Wallac, Gaithersburg, Md.) at a density of 1500-2000 cells per well in 50 μl of complete media. An additional 6-8 replicate well of the cells at the same density were plated on a separate Wallac TC Isoplate. This plate was developed on day 1 to determine the cell-growth baseline.
(§4) On day 1 of treatment, compound was diluted to 2× in media and immediately added to the cells as follows: one ml of media was added to each well of a deep-well 96-well plate and 2 μl of 1000× compound was added with mixing to make 2× compound in media. 50 μl of the media containing 2× compound was added to the cell plates in duplicate points so the final concentrations for each well were as outlined in Table 1. The plates were then returned to a 37° C. incubator and left undisturbed for 4 days. The day 1 (baseline) plates were developed by first adding 50 μl media (without compound) to bring the volume in each well to 100 μl, then adding 100 μl of Cell Titer Glo reagent (as below).
(§5) After four days of treatment, the plates were developed with Cell Titer Glo (CTG) reagent (Promega Corp.; Madison, Wis.). Reagent was reconstituted as described in the product insert. 100 μl of reagent was added to all treatment and control wells and the plates were gently shaken for 5 minutes then incubated an additional 5 minutes before reading in an Analyst AD (Molecular Devices Corporation; Sunnyvale, Calif.) using the Luminescence settings.
(§6) Data was analyzed in Excel using XLfit 4.2, fit model #205 (Dose Response One Site)

The next assay relates to SK-Mel3. To be noted: Homo sapiens, read-out: IC50 cell proliferation. As to the method:
as §1, §2, §3, §4, §5, §6

The subject of the next assay is ES-2. To be noted: Homo sapiens, read-out: IC50 cell proliferation. As to the method:
as §1, §2, §3, §4, §5, §6

The next assay has as its system Jurkat. Conditions: Homo sapiens, 96 h, read-out: IC50 cell proliferation. As to the method: as §1, §2, §3, §4, §5, §6
The next assay has as its system Hs294T. Conditions: Homo sapiens, Hs 294T, 96 h, read-out: IC50 cell proliferation. As to the method: as §1, §2, §3, §4, §5, §6
The test system of another assay is TT. To be noted: Homo sapiens, 96 h, Thyroid, BRAF V600V Wild type, 4 days continuous exposure. On the procedure: as §1, §2, §3, §4, §5, §6
The subject of a further assay is Malme 3M. To be noted: Homo sapiens, 96 h, read-out: IC50 cell proliferation. As to the method:
as §1, §2, §3, §4, §5, §6

The next assay concerns A673. To be noted: Homo sapiens, read-out: IC50 cell proliferation. On the procedure: as §1, §2, §3, §4, §5, §6
The subject of another assay is Colo-205. Conditions: Homo sapiens, read-out: IC50 cell proliferation. On the procedure: as §1, §2, §3, §4, §5, §6
Another assay concerns H716. Conditions: Homo sapiens, NCI-H716, 96 h, read-out: IC50 cell proliferation. As to the method:
as §1, §2, §3, §4, §5, §6

For a further assay, the system named is H292. To be noted: Homo sapiens, NCI-H292, 96 h, read-out: IC50 cell proliferation. On the procedure: as §1, §2, §3, §4, §5, §6
The test system of another assay is Caki-1. To be noted: Homo sapiens, read-out: IC50 cell proliferation. As to the method: as §1, §2, §3, §4, §5, §6
A further assay deals with RPMI-7951. To be noted: Homo sapiens, read-out: IC50 cell proliferation. On the procedure:
as §1, §2, §3, §4, §5, §6

In the next assay the test system is BHT 101. To be noted: Homo sapiens, read-out: IC50 cell proliferation. As to the method: as §1, §2, §3, §4, §5, §6
The test system of another assay is Daudi. To be noted: Homo sapiens, 96 h, read-out: IC50 cell proliferation. As to the method:
as §1, §2, §3, §4, §5, §6

The test system of the next assay is SK-Mel-1. Conditions: Homo sapiens, read-out: IC50 cell proliferation. On the procedure: as §1, §2, §3, §4, §5, §6
For another assay, the system named is KG-1. Conditions: Homo sapiens, read-out: IC50 cell proliferation. As to the method: as §1, §2, §3, §4, §5, §6
[1] abbreviates: Leukemia, BRAF V600V Wild type, 4 days continuous exposure.

With `O=C(Nc1ccc2[nH]nc(-c3ccncc3)c2c1)C1CCN(CC(=O)N2CCN(c3ccc(-c4ncccn4)cc3)CC2)C1` (stereo not shown) [cpd. a], the IC50 in the assay with A375 (A375, Melanoma, BRAF V600E Homozygous, 4 days continuous exposure) is 0.075 µM; in the assay with SK-Mel3 (96 h, SK-Mel3, Melanoma, BRAF V600E Heterozygous, 4 days continuous exposure) it was 0.118 µM; in the assay on ES-2 (96 h, ES-2, Ovarian, BRAF V600E Heterozygous, 4 days continuous exposure), 2.66 µM; with Jurkat (setting [1]), more than 3 µM; with Hs294T (Hs294T, Melanoma, BRAF V600E Heterozygous, 4 days continuous exposure) it was 1.73 µM; with TT it was 0.406 µM. In addition, the IC50 in the assay with Malme 3M (Malme 3M, Melanoma, BRAF V600E Homozygous, 4 days continuous exposure) was 0.01 µM; in the assay with A673 (96 h, A673, Rhabdomyosarcoma, BRAF V600E Heterozygous, 4 days continuous exposure) it was more than 3 µM; in the assay with Colo-205 (96 h, Colo-205, Colon, BRAF V600E Homozygous, 4 days continuous exposure) it was 0.036 µM; with H716 (H716, Colon, BRAF V600V Wild type, 4 days continuous exposure) it was 0.334 µM; with H292 (H292, Lung, BRAF V600V Wild type, 4 days continuous exposure) it was 0.09 µM; in the assay with Caki-1 (96 h, Caki-1, Renal, BRAF V600V Wild type, 4 days continuous exposure), 0.45 µM. Also, the IC50 is 0.344 µM in the assay on RPMI-7951 (96 h, RPMI-7951, Melanoma, BRAF V600E Heterozygous, 4 days continuous exposure); 0.3 µM with BHT 101 (96 h, BHT 101, Thyroid, BRAF V600E Heterozygous, 4 days continuous exposure); more than 3 µM in the assay on Daudi (setting [1]); 0.037 µM in the assay on SK-Mel-1 (96 h, SK-Mel-1, Melanoma, BRAF V600E Heterozygous, 4 days continuous exposure); 0.9 µM in the assay on KG-1 (96 h, KG-1, Leukemia, BRAF V600V Wild type, 4 days continuous exposure).
As to `O=C(NOC[C@H](O)CO)c1ccc(F)c(F)c1Nc1ccc(I)cc1F` [cpd. b, PD0325901], the IC50 with A375 worked out at 0.005 µM; with SK-Mel3 (SK-MEL3, 96 h), 0.008 µM; in the assay with ES-2 (ES-2, 96 h), 1 µM; with Jurkat, 1 µM; in the assay on Hs294T it was 0.071 µM; in the assay with TT, 0.255 µM. For the same compound, the IC50 in the assay on Malme 3M (Malme-3M) was 0.01 µM; in the assay on A673 (A673, 96 h) it was 1 µM; in the assay with Colo-205 (COLO 205, 96 h) it was 0.005 µM; in the assay on H716, 0.164 µM; with H292, 0.005 µM; in the assay with Caki-1 (CAKI-1, 96 h), 0.18 µM. For the same compound, the IC50 was 0.069 µM in the assay on RPMI-7951 (RPMI-7951, 96 h); 0.01 µM with BHT 101 (BHT-101, 96 h); 1 µM in the assay with Daudi; 0.003 µM in the assay with SK-Mel-1 (SK-MEL-1, 96 h); 0.04 µM with KG-1 (KG-1, 96 h).

Source of the values: US20110158944A1, “BRAF BIOMARKERS” (priority 2007, published 2011).
